Consider 5 molecules from patent US20080312197A1, “PHARMACEUTICAL PRODUCTS CONTAINING HORMONES AND A 25-HYDROXY VITAMIN D COMPOUND” (priority 2007, published 2008).

The test system of data set [1] is Vitamin D 24 hydroxylase (24-OH). The experiment in a line: Western blot of 24 hydroxylase expression in OVCAR 3 cells. The class given is cell-based, human. Particulars: 18 hours, 100 nM Vitamin D, 25 μM progesterone, 25 μM Genistein. From the text:
Protein was then extracted from the cells and 24-OH expression was the measured via Western Blot, and the degree of expression (band density) measured via a densitometer.
A general note: In western blotting, separated proteins are transferred to a membrane and probed.

For data set [2] the following is noted: cited from earlier work.
The target of data set [3] is T1, 24 hydroxylase (24-OH) (Homo sapiens, UniProt Q07973).
T1 sequence (Q07973 36-514): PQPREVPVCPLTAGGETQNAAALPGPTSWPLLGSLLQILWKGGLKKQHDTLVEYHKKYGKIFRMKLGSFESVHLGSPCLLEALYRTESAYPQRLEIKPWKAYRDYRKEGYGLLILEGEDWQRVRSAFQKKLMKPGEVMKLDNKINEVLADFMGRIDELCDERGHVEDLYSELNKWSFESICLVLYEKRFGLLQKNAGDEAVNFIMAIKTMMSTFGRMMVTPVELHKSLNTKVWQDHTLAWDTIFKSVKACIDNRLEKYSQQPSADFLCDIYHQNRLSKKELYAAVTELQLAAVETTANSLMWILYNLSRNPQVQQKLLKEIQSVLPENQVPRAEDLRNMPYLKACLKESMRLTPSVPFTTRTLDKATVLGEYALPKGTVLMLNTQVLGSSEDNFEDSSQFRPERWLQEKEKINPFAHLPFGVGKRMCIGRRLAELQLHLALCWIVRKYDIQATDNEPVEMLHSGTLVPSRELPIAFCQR
Particulars: shown by others; cited from earlier work.

The test system of data set [4] is HIO-118V cells. The experiment in a line: Apoptosis by TUNEL method, HIO-118V cells. The format is cell-based, human. Particulars: 45 uM progesterone, 1 uM Vitamin D. Here is the method:
In experiments to further understand the effect of progestin and vitamin D on cell viability, experiments were conducted to determine how progestin, vitamin D, and the combination act to induce apoptosis. In the experiment cells were incubated for 28 and 48 hours in the hormonal treatments as indicated and assessed for TUNEL reactivity. In these experiments, Apoptosis (TUNEL) data shown in conditions in which inhibitory effects via MTS were shown. In the example shown in FIG. 4, OVCAR 3 cells undergo a 7-fold increase in apoptosis at 48 hrs when treated with a combination of progesterone and vitamin D. HIO-118V cells show a 1.7-fold increase in apoptosis with 45 uM progesterone alone and a 1.9-fold increase with the combination of 1 uM Vitamin D and 45 uM progesterone.

The test system of data set [5] is OVCAR 5 cells. Put plainly: MTS cell viability assay, OVCAR 5 cells. The class given is cell-based, human. The procedure: (§1) Progesterone and Vitamin D (1,25(OH)2 D3) were tested to determine their effect on cell lines derived from the human ovarian surface epithelium. […] This is shown in FIGS. 1-3 in both ovarian cancer cell lines (OVCAR 5 and OVCAR 3) as well as an immortalized cell cultures derived from the normal human ovarian epithelium (HIO-118V). There is a marked impact on cell viability when the two agents are combined and administered at a dosage that has a marginal impact for each agent given alone.
A general note: Tetrazolium dyes change colour on reduction, which living cells bring about.

The test system of data set [6] is HIO-118V cells. The experiment in a line: MTS cell viability assay, immortalized human ovarian epithelial cells (HIO-118V). The class given is cell-based. Here is the method: as §1
The subject of data set [7] is OVCAR 3 cells. Put plainly: MTS cell viability assay, OVCAR 3 cells. The format is cell-based, human. Here is the method: as §1
The conditions of data set [8]: 0.5 micrograms per day or 5 micrograms per week; cited from earlier work.

Take “1,25-dihydroxyvitamin D3 [Vitamin D (1,25(OH)2 D3)]”: the “24-OH expression (Western blot, band density)” value in data set [1] is given as “markedly induced”.

With `C=C1CC[C@H](O)C/C1=C/C=C1\CCC[C@]2(C)[C@@H]([C@H](C)CCCC(C)(C)O)CC[C@@H]12` [25(OH) D3, 25-hydroxyvitamin D3], the “half life after oral administration” value in data set [2] was “approximately 2 weeks”.

With `O=c1c(-c2ccc(O)cc2)coc2cc(O)cc(O)c12` [Genistein, genistein], in data set [3], the “inhibition of 24-OH” value is given as “inhibit 24-OH”.

As to `CC(=O)[C@H]1CC[C@H]2[C@@H]3CCC4=CC(=O)CC[C@]4(C)[C@H]3CC[C@]12C` [Progesterone, progesterone], the “increase in apoptosis (TUNEL)” value in data set [4] worked out at 1.7 fold. The “24-OH expression (Western blot, band density)” value in data set [1] is “causes both degradation and decreases production of 24 hydroxylase”. For the same molecule, the “cell viability (MTS assay)” value in data set [5], in data set [6] and in data set [7] was “inhibit cell viability in a dose response fashion” throughout.

Consider `C=C1/C(=C\C=C2/CCC[C@]3(C)[C@@H]([C@H](C)CCCC(C)(C)O)CC[C@@H]23)C[C@@H](O)C[C@@H]1O` [Vitamin D (1,25(OH)2 D3), 1,25-dihydroxyvitamin D3], for which the “cell viability (MTS assay)” value in data set [5], in data set [6] and in data set [7] was “inhibit cell viability in a dose response fashion” each time. Moreover, in data set [8], the individuals developing hypercalcemia was 1-3%. In data set [2], the “half life after oral administration” value is 5 to 8 h. Moreover, the serum half-life in data set [2] (serum) was 6 to 8 h.
